# Test results: PubChem BioAssay AID330 (DTP/NCI, 2004)
# Values joined by “and” are separate entries in the source; they are usually repeats but may differ in a detail not shown here. Equal entries are not always repeated. Toxic doses and inconclusive results are not listed.
# System: P388 leukemia ip, CD2F1 mice, survival T/C
# Assay: NCI In Vivo Anticancer Drug Screen. Data for tumor model P388 Leukemia (intraperitoneal) in CD2F1 (CDF1) mice
# Conditions: endpoint: median survival time, higher = longer survival
# How it was run: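 Mice carrying the transplanted tumor received test compound or vehicle. Survival was recorded in each group, and the value is the treated-group measurement divided by that of the vehicle-treated control group.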
# [1] = dose: 100.0 mg/kg/injection, schedule: Q01DX009 (ip), vehicle: saline
# [2] = dose: 400.0 mg/kg/injection, schedule: Q01DX009 (ip), vehicle: saline
# [3] = dose: 60.0 mg/kg/injection, schedule: Q01DX005 (ip), vehicle: saline with Tween-80
# [4] = dose: 120.0 mg/kg/injection, schedule: Q01DX005 (ip), vehicle: saline with Tween-80
# [5] = dose: 240.0 mg/kg/injection, schedule: Q01DX005 (ip), vehicle: saline with Tween-80
# [6] = dose: 50.0 mg/kg/injection, schedule: Q01DX009 (ip), vehicle: saline
# [7] = dose: 200.0 mg/kg/injection, schedule: Q01DX009 (ip), vehicle: saline
# [8] = dose: 12.5 mg/kg/injection, schedule: Q01DX009 (ip), vehicle: saline
# [9] = dose: 100.0 mg/kg/injection, schedule: Q01DX009 (ip), vehicle: saline with Tween-80
smiles,measurement,setting,value
COCCOC(C)C(=O)C(O)S(=O)(=O)O (stereo not drawn),T/C,[1],109 % of control
same,T/C,"dose: 100.0 mg/kg/injection, schedule: Q04DX003 (ip), vehicle: saline",100 % of control
same,T/C,"dose: 200.0 mg/kg/injection, schedule: Q04DX003 (ip), vehicle: saline",100 % of control
same,T/C,[2],154 % of control
same,T/C,"dose: 400.0 mg/kg/injection, schedule: Q04DX003 (ip), vehicle: saline",107 % of control
CCCCC(CC)(CC(=N)C(C)(C)C)c1ccccc1 (stereo not drawn),T/C,"dose: 50.0 mg/kg/injection, schedule: Q01DX009 (ip), vehicle: saline + alcohol",111 % of control
same,T/C,"dose: 100.0 mg/kg/injection, schedule: Q01DX009 (ip), vehicle: saline + alcohol",103 % of control
same,T/C,"dose: 200.0 mg/kg/injection, schedule: Q01DX009 (ip), vehicle: saline + alcohol",119 % of control
CC1(C)NC(=O)[C@]2(C[C@@H](OC(=O)c3ccccc3)C=C2C=O)O1,T/C,"dose: 25.0 mg/kg/injection, schedule: Q01DX005 (ip), vehicle: saline with Tween-80",109 % of control
same,T/C,"dose: 50.0 mg/kg/injection, schedule: Q01DX005 (ip), vehicle: saline with Tween-80",96 % of control
Cc1cccc(N2C(c3ccccc3)c3ccc(C)cc3NS2=O)c1 (stereo not drawn),T/C,[3],97 % of control
same,T/C,[4],90 % of control
same,T/C,[5],95 % of control
CCOC(=O)C1=C(C)Oc2cc3c(cc2C1c1cc(OC)c(OC)c(OC)c1)OCO3 (stereo not drawn),T/C,[3],97 % of control
same,T/C,[4],98 % of control
same,T/C,[5],94 % of control
Cc1ccc2nccnc2c1,T/C,[6],101 % of control
same,T/C,[1],99 % of control
same,T/C,[7],101 % of control
same,T/C,[2],100 % of control
NC(CO)C(=O)O.[Cl-].[Cl-].[Cl-].[Cl-].[Pt+2] (stereo not drawn),T/C,"dose: 6.25 mg/kg/injection, schedule: Q01DX009 (ip), vehicle: saline",114 % of control
same,T/C,[8],115 % of control
same,T/C,[6],159 % of control
CC(C)(C)N1OC1C(Cl)(Cl)Cl (stereo not drawn),T/C,[3],101 % of control
same,T/C,[4],104 % of control
same,T/C,[5],104 % of control
CC1(C)OC2(CC1C1(C)C=CC(=O)O1)CC1C(O)(CCC34CC13C(=O)OC4c1ccoc1)O2 (stereo not drawn),T/C,[6],100 % of control
same,T/C,[1],95 % of control
same,T/C,[7],104 % of control
C=C(C)C(=NC(C)(C)C)N(C(C)C)C(C)C,T/C,"dose: 12.5 mg/kg/injection, schedule: Q01DX005 (ip), vehicle: Klucel (hydroxypropylcellulose) (HPC)",102 % of control
same,T/C,"dose: 12.5 mg/kg/injection, schedule: Q01DX009 (ip), vehicle: saline with Tween-80",89 % of control
same,T/C,[8],102 % of control
same,T/C,"dose: 25.0 mg/kg/injection, schedule: Q01DX005 (ip), vehicle: Klucel (hydroxypropylcellulose) (HPC)",96 % of control
same,T/C,"dose: 25.0 mg/kg/injection, schedule: Q01DX009 (ip), vehicle: saline with Tween-80",97 % of control
same,T/C,"dose: 25.0 mg/kg/injection, schedule: Q01DX009 (ip), vehicle: saline",101 % of control
same,T/C,"dose: 50.0 mg/kg/injection, schedule: Q01DX005 (ip), vehicle: Klucel (hydroxypropylcellulose) (HPC)",98 % of control
same,T/C,"dose: 50.0 mg/kg/injection, schedule: Q01DX009 (ip), vehicle: saline with Tween-80",100 % of control and 120 % of control
same,T/C,[9],108 % of control
CC1(C)CCC2=C1CC[C@H]1[C@H]2CCC2=CC(=O)CC[C@@]21C,T/C,[9],90 % of control
same,T/C,"dose: 100.0 mg/kg/injection, schedule: Q04DX003 (ip), vehicle: saline with Tween-80",110 % of control
same,T/C,"dose: 200.0 mg/kg/injection, schedule: Q01DX009 (ip), vehicle: saline with Tween-80",100 % of control
same,T/C,"dose: 200.0 mg/kg/injection, schedule: Q04DX003 (ip), vehicle: saline with Tween-80",105 % of control
same,T/C,"dose: 400.0 mg/kg/injection, schedule: Q04DX003 (ip), vehicle: saline with Tween-80",115 % of control
